Assay results taken from patent publication US20100099561A1, “HETEROBICYCLIC ALKYLTHIO-BRIDGED ISOXAZOLINES” (E.I. DU PONT DE NEMOURS AND COMPANY, priority 2008, published 2010).

Assays:
Format in all cases: in vivo
[1] = tested on: wheat (Triticum aestivum); assay: Test A preemergence, wheat; conditions: 0 to 100 scale (0 no effect, 100 complete control)
Excerpt: (§1) Seeds of barnyardgrass (Echinochloa crus-galli), large crabgrass (Digitaria sanguinalis), giant foxtail (Setaria faberi), morningglory (Ipomoea spp.), pigweed (Amaranthus retroflexus), velvetleaf (Abutilon theophrasti), wheat (Triticum aestivum), and corn (Zea mays) were planted into a blend of loam soil and sand and treated preemergence with a directed soil spray using test chemicals formulated in a non-phytotoxic solvent mixture which included a surfactant. At the same time these species were also treated with postemergence applications of test compounds formulated in the same manner. Plants ranged in height from two to ten cm and were in the one- to two-leaf stage for the postemergence treatment. Treated plants and untreated controls were maintained in a greenhouse for approximately ten days, after which time all treated plants were compared to untreated controls and visually evaluated for injury. Plant response ratings, summarized in Table A, are based on a 0 to 100 scale where 0 is no effect and 100 is complete control. A dash (-) response means no test result.

[2] = tested on: velvetleaf (Abutilon theophrasti); assay: Test A postemergence, velvetleaf; conditions: 0 to 100 scale (0 no effect, 100 complete control)
Excerpt: as §1

[3] = tested on: giant foxtail (Setaria faberi); assay: Test A preemergence, giant foxtail; conditions: 0 to 100 scale (0 no effect, 100 complete control)
Excerpt: as §1

[4] = tested on: large crabgrass (Digitaria sanguinalis); assay: Test A preemergence, large crabgrass; conditions: 0 to 100 scale (0 no effect, 100 complete control)
Excerpt: as §1

[5] = tested on: velvetleaf (Abutilon theophrasti); assay: Test A preemergence, velvetleaf; conditions: 0 to 100 scale (0 no effect, 100 complete control)
Excerpt: as §1

[6] = tested on: rice (Oryza sativa); assay: Test B flooded paddy test, rice; conditions: Flood, scale 0 to 100
Excerpt: (§2) Plant species in the flooded paddy test consisted of rice (Oryza sativa), umbrella sedge (Cyperus difformis), ducksalad (Heteranthera limosa) and barnyardgrass (Echinochloa crus-galli) grown to the 2-leaf stage for testing. At time of treatment, test pots were flooded to 3 cm above the soil surface, treated by application of test compounds directly to the paddy water, and then maintained at that water depth for the duration of the test. Treated plants and controls were maintained in a greenhouse for 13 to 15 days, after which time all species were compared to controls and visually evaluated. Plant response ratings, summarized in Table B, are based on a scale of 0 to 100 where 0 is no effect and 100 is complete control. A dash (-) response means no test result.

[7] = tested on: barnyardgrass (Echinochloa crus-galli); assay: Test A postemergence, barnyardgrass; conditions: 0 to 100 scale (0 no effect, 100 complete control)
Excerpt: as §1

[8] = tested on: corn (Zea mays); assay: Test A preemergence, corn; conditions: 0 to 100 scale (0 no effect, 100 complete control)
Excerpt: as §1

[9] = tested on: umbrella sedge (Cyperus difformis); assay: Test B flooded paddy test, umbrella sedge; conditions: Flood, scale 0 to 100
Excerpt: as §2

[10] = tested on: barnyardgrass (Echinochloa crus-galli); assay: Test B flooded paddy test, barnyardgrass; conditions: Flood
Excerpt: as §2

[11] = tested on: morningglory (Ipomoea spp.); assay: Test A preemergence, morningglory; conditions: 0 to 100 scale (0 no effect, 100 complete control)
Excerpt: as §1

[12] = tested on: giant foxtail (Setaria faberi); assay: Test A postemergence, giant foxtail; conditions: 0 to 100 scale (0 no effect, 100 complete control)
Excerpt: as §1

[13] = tested on: corn (Zea mays); assay: Test A postemergence, corn; conditions: 0 to 100 scale (0 no effect, 100 complete control)
Excerpt: as §1

[14] = tested on: ducksalad (Heteranthera limosa); assay: Test B flooded paddy test, ducksalad; conditions: Flood, scale 0 to 100
Excerpt: as §2

[15] = tested on: large crabgrass (Digitaria sanguinalis); assay: Test A postemergence, large crabgrass; conditions: 0 to 100 scale (0 no effect, 100 complete control)
Excerpt: as §1

[16] = tested on: pigweed (Amaranthus retroflexus); assay: Test A postemergence, pigweed; conditions: 0 to 100 scale (0 no effect, 100 complete control)
Excerpt: as §1

[17] = tested on: morningglory (Ipomoea spp.); assay: Test A postemergence, morningglory; conditions: 0 to 100 scale (0 no effect, 100 complete control)
Excerpt: as §1

[18] = tested on: barnyardgrass (Echinochloa crus-galli); assay: Test A preemergence, barnyardgrass; conditions: 0 to 100 scale (0 no effect, 100 complete control)
Excerpt: as §1

[19] = tested on: pigweed (Amaranthus retroflexus); assay: Test A preemergence, pigweed; conditions: 0 to 100 scale (0 no effect, 100 complete control)
Excerpt: as §1

[20] = tested on: wheat (Triticum aestivum); assay: Test A postemergence, wheat; conditions: 0 to 100 scale (0 no effect, 100 complete control)
Excerpt: as §1

[21] = 250 g ai/ha, scale 0 to 100 (0 no effect, 100 complete control)

## CC1(C)CC(S(=O)(=O)Cc2c(C(F)(F)F)nc3ccccn3c2=O)=NO1 [Compound 7]
[1]; 125 g ai/ha
  Plant response rating, Wheat: 0
[1]; 500 g ai/ha
  Plant response rating, Wheat: 10
[2]; 125 g ai/ha
  Plant response rating, Velvetleaf: 0
[2]; 500 g ai/ha
  Plant response rating, Velvetleaf: 20
[3]; 125 g ai/ha
  Plant response rating, Foxtail, Giant: 80
[3]; 500 g ai/ha
  Plant response rating, Foxtail, Giant: 90
[4]; 125 g ai/ha
  Plant response rating, Crabgrass, Large: 60
[4]; 500 g ai/ha
  Plant response rating, Crabgrass, Large: 80
[5]; 125 g ai/ha
  Plant response rating, Velvetleaf: 0
[5]; 500 g ai/ha
  Plant response rating, Velvetleaf: 0
[6]; 62 g ai/ha
  Plant response rating, Rice: 0
[6]; 250 g ai/ha
  Plant response rating, Rice: 0
[7]; 125 g ai/ha
  Plant response rating, Barnyardgrass: 80
[7]; 500 g ai/ha
  Plant response rating, Barnyardgrass: 80
[8]; 125 g ai/ha
  Plant response rating, Corn: 0
[8]; 500 g ai/ha
  Plant response rating, Corn: 0
[9]; 62 g ai/ha
  Plant response rating, Sedge, Umbrella: 0
[9]; 250 g ai/ha
  Plant response rating, Sedge, Umbrella: 0
[10]; 62 g ai/ha, scale 0 to 100
  Plant response rating, Barnyardgrass: 0
[10]; [21]
  Plant response rating, Barnyardgrass: 0
[11]; 125 g ai/ha
  Plant response rating, Morningglory: 0
[11]; 500 g ai/ha
  Plant response rating, Morningglory: 0
[12]; 125 g ai/ha
  Plant response rating, Foxtail, Giant: 60
[12]; 500 g ai/ha
  Plant response rating, Foxtail, Giant: 80
[13]; 125 g ai/ha
  Plant response rating, Corn: 0
[13]; 500 g ai/ha
  Plant response rating, Corn: 0
[14]; 62 g ai/ha
  Plant response rating, Ducksalad: 0
[14]; 250 g ai/ha
  Plant response rating, Ducksalad: 0
[15]; 125 g ai/ha
  Plant response rating, Crabgrass, Large: 40
[15]; 500 g ai/ha
  Plant response rating, Crabgrass, Large: 80
[16]; 125 g ai/ha
  Plant response rating, Pigweed: 0
[16]; 500 g ai/ha
  Plant response rating, Pigweed: 0
[17]; 125 g ai/ha
  Plant response rating, Morningglory: 0
[17]; 500 g ai/ha
  Plant response rating, Morningglory: 0
[18]; 125 g ai/ha
  Plant response rating, Barnyardgrass: 60
[18]; 500 g ai/ha
  Plant response rating, Barnyardgrass: 90
[19]; 125 g ai/ha
  Plant response rating, Pigweed: 0
[19]; 500 g ai/ha
  Plant response rating, Pigweed: 0
[20]; 125 g ai/ha
  Plant response rating, Wheat: 0
[20]; 500 g ai/ha
  Plant response rating, Wheat: 0

## CC1(C)CC([S+]([O-])Cc2c(C(F)(F)F)nc3n(c2=O)CCC3)=NO1 (stereo not drawn) [Compound 10, 3-[[(4,5-dihydro-5,5-dimethyl-3-isoxazolyl)sulfinyl]methyl]-7,8-dihydro-2-(trifluoromethyl)pyrrolo[1,2-α]pyrimidin-4(6H)-one]
[1]; 125 g ai/ha
  Plant response rating, Wheat: 0
[1]; 500 g ai/ha
  Plant response rating, Wheat: 30
[2]; 125 g ai/ha
  Plant response rating, Velvetleaf: 10
[2]; 500 g ai/ha
  Plant response rating, Velvetleaf: 40
[3]; 125 g ai/ha
  Plant response rating, Foxtail, Giant: 20
[3]; 500 g ai/ha
  Plant response rating, Foxtail, Giant: 80
[4]; 125 g ai/ha
  Plant response rating, Crabgrass, Large: 0
[4]; 500 g ai/ha
  Plant response rating, Crabgrass, Large: 80
[5]; 125 g ai/ha
  Plant response rating, Velvetleaf: 0
[5]; 500 g ai/ha
  Plant response rating, Velvetleaf: 0
[6]; 31 g ai/ha
  Plant response rating, Rice: 0
[6]; 62 g ai/ha
  Plant response rating, Rice: 0
[6]; 125 g ai/ha
  Plant response rating, Rice: 0
[6]; 250 g ai/ha
  Plant response rating, Rice: 0
[7]; 125 g ai/ha
  Plant response rating, Barnyardgrass: 30
[7]; 500 g ai/ha
  Plant response rating, Barnyardgrass: 80
[8]; 125 g ai/ha
  Plant response rating, Corn: 0
[8]; 500 g ai/ha
  Plant response rating, Corn: 10
[9]; 31 g ai/ha
  Plant response rating, Sedge, Umbrella: 0
[9]; 62 g ai/ha
  Plant response rating, Sedge, Umbrella: 0
[9]; 125 g ai/ha
  Plant response rating, Sedge, Umbrella: 0
[9]; 250 g ai/ha
  Plant response rating, Sedge, Umbrella: 0
[10]; 31 g ai/ha, scale 0 to 100
  Plant response rating, Barnyardgrass: 0
[10]; 62 g ai/ha, scale 0 to 100
  Plant response rating, Barnyardgrass: 0
[10]; 125 g ai/ha, scale 0 to 100
  Plant response rating, Barnyardgrass: 0
[10]; [21]
  Plant response rating, Barnyardgrass: 0
[11]; 125 g ai/ha
  Plant response rating, Morningglory: 0
[11]; 500 g ai/ha
  Plant response rating, Morningglory: 0
[12]; 125 g ai/ha
  Plant response rating, Foxtail, Giant: 30
[12]; 500 g ai/ha
  Plant response rating, Foxtail, Giant: 70
[13]; 125 g ai/ha
  Plant response rating, Corn: 0
[13]; 500 g ai/ha
  Plant response rating, Corn: 20
[14]; 31 g ai/ha
  Plant response rating, Ducksalad: 0
[14]; 62 g ai/ha
  Plant response rating, Ducksalad: 0
[14]; 125 g ai/ha
  Plant response rating, Ducksalad: 0
[14]; 250 g ai/ha
  Plant response rating, Ducksalad: 0
[15]; 125 g ai/ha
  Plant response rating, Crabgrass, Large: 40
[15]; 500 g ai/ha
  Plant response rating, Crabgrass, Large: 70
[16]; 125 g ai/ha
  Plant response rating, Pigweed: 10
[16]; 500 g ai/ha
  Plant response rating, Pigweed: 30
[17]; 125 g ai/ha
  Plant response rating, Morningglory: 10
[17]; 500 g ai/ha
  Plant response rating, Morningglory: 20
[18]; 125 g ai/ha
  Plant response rating, Barnyardgrass: 0
[18]; 500 g ai/ha
  Plant response rating, Barnyardgrass: 70
[19]; 125 g ai/ha
  Plant response rating, Pigweed: 0
[19]; 500 g ai/ha
  Plant response rating, Pigweed: 0
[20]; 125 g ai/ha
  Plant response rating, Wheat: 0
[20]; 500 g ai/ha
  Plant response rating, Wheat: 20
